Literature values in patent US20220235034A1, “SELECTIVE HISTAMINE H3 RECEPTOR ANTAGONISTS FOR TREATING AUTISM SPECTRUM DISORDER” (RICHTER GEDEON NYRT., priority 2019, published 2022).

Legend:
histamine H3 receptor [1] = target: T1, histamine H3 receptor (Homo sapiens, UniProt Q9Y5N1); conditions: according to WO 2014/136075A1; cited from earlier work
histamine H3 receptor [2] = target: T2, histamine H3 receptor (Rattus norvegicus, UniProt Q9QYN8); conditions: in vivo in rats; cited from earlier work
T2 construct: from tissue; host or cells: living rat (in vivo)
T2 sequence (Q9QYN8 whole entry): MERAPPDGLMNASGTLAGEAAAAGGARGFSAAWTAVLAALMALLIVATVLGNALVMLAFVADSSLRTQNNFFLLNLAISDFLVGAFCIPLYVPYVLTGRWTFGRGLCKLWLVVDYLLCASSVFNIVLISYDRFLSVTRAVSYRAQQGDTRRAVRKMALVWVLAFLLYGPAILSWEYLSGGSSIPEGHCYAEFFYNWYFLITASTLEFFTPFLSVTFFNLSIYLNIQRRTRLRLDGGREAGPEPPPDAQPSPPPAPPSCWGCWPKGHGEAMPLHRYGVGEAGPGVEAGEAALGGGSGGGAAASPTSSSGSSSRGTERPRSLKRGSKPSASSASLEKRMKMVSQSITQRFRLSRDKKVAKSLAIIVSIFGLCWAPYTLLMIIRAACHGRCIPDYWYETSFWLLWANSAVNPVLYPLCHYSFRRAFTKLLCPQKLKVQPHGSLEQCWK

histamine H3 receptor [3] = target: T1, histamine H3 receptor; conditions: cited from earlier work
[4] = target: T3, human monoamine oxidase B (Homo sapiens, UniProt P27338); conditions: cited from earlier work
T3 sequence (P27338 1-520): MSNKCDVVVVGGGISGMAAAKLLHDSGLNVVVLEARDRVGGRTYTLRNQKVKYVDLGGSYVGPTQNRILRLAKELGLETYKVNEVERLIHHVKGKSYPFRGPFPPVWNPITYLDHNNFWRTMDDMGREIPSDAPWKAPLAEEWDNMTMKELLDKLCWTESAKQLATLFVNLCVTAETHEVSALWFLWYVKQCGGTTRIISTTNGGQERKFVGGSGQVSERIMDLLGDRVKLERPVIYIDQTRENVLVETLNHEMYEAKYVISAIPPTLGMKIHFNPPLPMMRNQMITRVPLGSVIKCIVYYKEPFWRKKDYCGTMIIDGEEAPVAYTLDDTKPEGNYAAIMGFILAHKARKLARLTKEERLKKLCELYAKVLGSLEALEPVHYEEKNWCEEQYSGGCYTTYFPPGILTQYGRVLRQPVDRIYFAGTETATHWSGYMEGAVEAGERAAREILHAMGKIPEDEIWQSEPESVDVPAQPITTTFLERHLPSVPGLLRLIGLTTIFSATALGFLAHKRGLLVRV

[5] = target: T4, human monoamine oxidase A (Homo sapiens, UniProt P21397); conditions: cited from earlier work
T4 sequence (P21397 1-527): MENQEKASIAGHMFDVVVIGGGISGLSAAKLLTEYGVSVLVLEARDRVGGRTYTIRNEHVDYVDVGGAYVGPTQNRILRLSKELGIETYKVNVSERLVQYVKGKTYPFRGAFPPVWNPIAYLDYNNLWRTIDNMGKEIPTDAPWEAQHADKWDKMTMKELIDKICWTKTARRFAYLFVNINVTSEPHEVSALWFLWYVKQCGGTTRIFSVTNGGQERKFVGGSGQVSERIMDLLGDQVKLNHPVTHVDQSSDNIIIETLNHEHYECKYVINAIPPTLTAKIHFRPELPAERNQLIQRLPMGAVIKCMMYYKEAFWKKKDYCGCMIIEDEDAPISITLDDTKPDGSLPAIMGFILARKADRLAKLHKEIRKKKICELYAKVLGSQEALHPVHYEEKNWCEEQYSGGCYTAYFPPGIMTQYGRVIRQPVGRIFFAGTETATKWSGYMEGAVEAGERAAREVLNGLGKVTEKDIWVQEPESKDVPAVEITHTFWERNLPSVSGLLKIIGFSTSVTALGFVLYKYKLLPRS

rat monoamine oxidase B = target: T5, rat monoamine oxidase B (Rattus norvegicus, UniProt P19643); conditions: cited from earlier work
T5 sequence (P19643 1-520): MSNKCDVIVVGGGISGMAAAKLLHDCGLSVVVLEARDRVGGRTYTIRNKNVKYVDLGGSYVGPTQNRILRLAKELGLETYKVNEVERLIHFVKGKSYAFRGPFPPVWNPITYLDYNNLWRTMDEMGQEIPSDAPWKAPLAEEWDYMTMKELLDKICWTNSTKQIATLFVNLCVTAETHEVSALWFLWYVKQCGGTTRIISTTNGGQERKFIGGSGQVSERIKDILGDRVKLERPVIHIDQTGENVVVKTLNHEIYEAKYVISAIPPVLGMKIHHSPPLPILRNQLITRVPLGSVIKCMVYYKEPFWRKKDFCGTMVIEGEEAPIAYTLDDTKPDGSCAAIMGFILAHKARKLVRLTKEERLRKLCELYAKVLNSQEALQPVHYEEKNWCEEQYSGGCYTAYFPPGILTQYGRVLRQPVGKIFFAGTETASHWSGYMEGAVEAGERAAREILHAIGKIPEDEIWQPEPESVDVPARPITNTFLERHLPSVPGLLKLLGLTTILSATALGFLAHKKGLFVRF

[6] = tested on: prenatally VPA-exposed mice; conditions: cited from earlier work
rat monoamine oxidase A = target: T6, rat monoamine oxidase A (Rattus norvegicus, UniProt P21396); conditions: cited from earlier work
T6 sequence (P21396 1-526): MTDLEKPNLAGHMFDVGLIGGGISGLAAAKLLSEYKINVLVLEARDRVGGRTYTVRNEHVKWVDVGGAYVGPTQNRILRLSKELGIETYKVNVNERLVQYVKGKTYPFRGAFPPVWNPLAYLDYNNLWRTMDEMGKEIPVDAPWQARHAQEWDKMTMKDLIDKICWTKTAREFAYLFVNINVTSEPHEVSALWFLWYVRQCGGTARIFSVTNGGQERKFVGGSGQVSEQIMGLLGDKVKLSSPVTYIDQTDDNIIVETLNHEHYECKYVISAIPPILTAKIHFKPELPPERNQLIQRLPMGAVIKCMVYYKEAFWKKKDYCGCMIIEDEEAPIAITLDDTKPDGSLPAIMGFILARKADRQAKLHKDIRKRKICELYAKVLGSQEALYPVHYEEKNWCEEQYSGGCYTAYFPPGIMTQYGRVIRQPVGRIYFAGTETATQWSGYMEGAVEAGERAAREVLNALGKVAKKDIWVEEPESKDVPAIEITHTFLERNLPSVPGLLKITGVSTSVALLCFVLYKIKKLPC

[7] = 3 mg/kg intraperitoneally; cited from earlier work
ASD subjects = conditions: humans; cited from earlier work
prenatal VPA model = conditions: in vivo; cited from earlier work
[8] = 3 mg/kg intraperitoneally, prenatal valproate model in mice

T1 sequence (Q9Y5N1 whole entry, species assumed): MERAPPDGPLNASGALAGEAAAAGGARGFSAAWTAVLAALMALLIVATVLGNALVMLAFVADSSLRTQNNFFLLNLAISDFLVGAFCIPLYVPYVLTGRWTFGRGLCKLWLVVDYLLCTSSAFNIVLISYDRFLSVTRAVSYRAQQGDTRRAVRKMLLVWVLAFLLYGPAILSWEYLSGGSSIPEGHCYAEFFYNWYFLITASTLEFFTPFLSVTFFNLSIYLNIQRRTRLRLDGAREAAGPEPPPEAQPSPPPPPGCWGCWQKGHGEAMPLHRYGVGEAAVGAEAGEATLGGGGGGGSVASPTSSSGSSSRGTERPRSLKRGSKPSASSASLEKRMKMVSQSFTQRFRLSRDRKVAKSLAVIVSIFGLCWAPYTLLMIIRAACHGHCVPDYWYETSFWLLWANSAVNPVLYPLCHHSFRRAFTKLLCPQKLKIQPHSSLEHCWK

SMILES: CC(=O)N1CCC(Oc2ccc(OCCCN3CCC[C@H]3C)cc2)CC1 [Compound of Formula 1, 1-[4-(4-{3-[(2R)-2-methylpyrrolidin-1-yl]-propoxy}-phenoxy)-piperidin-1-yl]-ethan-1-on]
- affinity for histamine H3 receptor (histamine H3 receptor [1]): high affinity
- selectivity for histamine H3 receptor (histamine H3 receptor [1]): highly selective
- histamine H3 receptor antagonism in vivo (histamine H3 receptor [2]): shows histamine H3 receptor antagonism in vivo
- functional behaviour in vitro (histamine H3 receptor [3]): receptor antagonist/inverse agonist

SMILES: O=C(c1ccc(OCCCc2cnc[nH]2)cc1)C1CC1 [ciproxifan]
- preference between monoamine oxidase A and B ([4]; human and rat enzymes): slight preference for monoamine oxidase B
- inhibition of monoamine oxidase B, concentration range ([4]; human): micromolar concentration range
- inhibition of monoamine oxidase A, concentration range [5]: micromolar concentration range
- inhibition of monoamine oxidase B, concentration range (rat monoamine oxidase B): micromolar concentration range
- excessive repetitive behavior [6, 8]: improved
- social deficits [6, 8]: improved
- social novelty preference ([6]; prenatally VPA-exposed mice): did not have an effect
- inhibition of monoamine oxidase A, concentration range (rat monoamine oxidase A): micromolar concentration range
- plasma exposures [7]: micromolar range

SMILES: CC[C@H](C)[C@@H]1NC(=O)[C@H](Cc2ccc(O)cc2)NC(=O)[C@@H](N)CSSC[C@@H](C(=O)N2CCC[C@H]2C(=O)N[C@@H](CC(C)C)C(=O)NCC(N)=O)NC(=O)[C@H](CC(N)=O)NC(=O)[C@H](CCC(N)=O)NC1=O [oxytocin]
- efficacy signals in ASD subjects (ASD subjects): produced efficacy signals
- behavioral impairments in the prenatal VPA model (prenatal VPA model): improve behavioral impairments
